Columns and labels:
German cockroaches [1] = test: Knockdown of cockroaches continuously confined to calcium carbonate + 5% neurally effective substance; format: in vivo, Blattella, germanica; settings: for insecticidal activity (in words): 5% (wt/wt) in calcium carbonate, or dust alone; for KT50 / KT90 / KT90, Hours: 5% (wt/wt) ingredient in calcium carbonate, or dust alone, 1.2 cc, 78 ± 4° F., 55 ± 6% rh
Description: (§1) Continuous exposure tests.—The intrinsic insecticidal activity of the insecticide dust against B. germanica was determined by exposing cockroaches to fresh and aged deposits of the dust. Replicated groups of three to ten adult cockroaches from culture were confined to deposits of the dust, and its speed of action in terms of knockdown (KD) and paralysis was determined. Adult male cockroaches from culture were placed directly onto fairly heavy deposits of dust (1 to 1.2 cc) spread evenly on filter paper in covered 9-cm-diameter petri dishes. The time for irreversible KD to occur (KT) was determined from periodic, irregular observation. The insects were considered KD when they were on their back, or could be turned over, and could not right themselves within at least two minutes. […] Comparison of KD activity was made with some commercial dust formulations including a non-fluorinated silica aerogel (SG-68), Drione™ (a fluorinated silica aerogel+pyrethrins), and a commercial diatomaceous earth (Celite™) applied and tested in the same manner.
(§2) The beads were screened out of the resultant mix. Exactly 1.2 cc of dust or dust was spread onto Whatman filter paper in 9-cm-diam petri dishes and the knockdown (KD) of cockroaches confined to the dust mix was determined by periodically observing KD.

German cockroaches [2] = settings: choice box; repellency measure
Description: Choice box tests.—The activity and repellency of the present insecticide dust in a choice test was determined with standard two-compartment choice boxes.
Choice boxes are 30.5 cm square, 10 cm tall wooden boxes, with a tempered masonite floor. A vertical partition panel separates the box into two equal-sized compartments. A 1.3 cm hole at the top center of the partition panel allows cockroaches to move from one compartment to the other. Transparent sheet plexiglass (0.3 cm thick) taped to the top retains cockroaches in the box and allows observation of live and dead in each compartment. A piece of masonite keeps one compartment dark (dark compartment). […]
Five boxes were used for each treatment and the untreated control. […] Cockroaches prefer to aggregate in the dark, and they will normally readily move from the light compartment to the dark compartment of untreated choice boxes within a day or two. […] The number dead and alive in each compartment of each box was recorded every few days. […]
The mortality produced in choice boxes, and the position of cockroaches in relation to the treatment, provides a measure of the likely ultimate efficacy of a treatment when used under actual field conditions. […] On the other hand, slow-acting insecticides such as boric acid are effective in choice box tests because cockroaches readily walk on those deposits and are eventually killed by them.

[3] = tested on: adult male German cockroaches; test: Control test: knockdown of cockroaches continuously confined to deposits of the solid dust components; format: in vivo, Blattella, germanica; settings: continuously confined to dust deposit; 76° F., 55% relative humidity
Description: as §1
A control test was conducted using only the solid components of the embodiment.

German cockroaches [4] = test: Phenol vs. terpineol in calcium carbonate: knockdown of cockroaches; format: in vivo, Blattella, germanica
Description: as §2
A further test was conducted to compare the effectiveness of phenol vs. terpineol as a neurally effective substance.

[5] = 0.32 % (wt/wt) in calcium carbonate
[6] = 0.63 % (wt/wt) in calcium carbonate
[7] = 1.25 % (wt/wt) in calcium carbonate
[8] = 2.5 % (wt/wt) in calcium carbonate
[9] = 5.0 % (wt/wt) in calcium carbonate

CCOC(=O)c1ccccc1C(=O)OCC [Diethyl phthalate]
insecticidal activity (in words) (German cockroaches [1]): not insecticidal

CC(=O)OCc1ccccc1 [Benzyl acetate]
insecticidal activity (in words) (German cockroaches [1]): most active
KT50 (German cockroaches [1]): 0.7 h
KT90 (German cockroaches [1]): 1.0 h
KT90, Hours (German cockroaches [1]; listed as benzyl acetate): about one hour or so

OCCc1ccccc1 [Phenyl ethyl alcohol]
insecticidal activity (in words) (German cockroaches [1]): most active
KT50 (German cockroaches [1]): 0.7 h
KT90 (German cockroaches [1]): 1.0 h
KT90, Hours (German cockroaches [1]; listed as phenyl ethyl alcohol): about one hour or so

OB(O)O [Boric acid, tech., Boric acid]
% of live in light on day 1 (German cockroaches [2]): 13%
% of live in light on day 7 (German cockroaches [2]): 100%

O=C([O-])[O-].[Ca+2] [Calcium carbonate (CaCO3), Calcium carbonate]
insecticidal activity (in words) (German cockroaches [1]): not insecticidal
% KD at 24 h (German cockroaches [1]; dust alone): (1.3% KD at 24 h)

CCCCC/C(C=O)=C/c1ccccc1 [Amyl cinnamic aldehyde, 5%, Amyl cinnamic aldehyde]
insecticidal activity (in words) (German cockroaches [1]): much slower, about as active as diatomaceous earth
KT50 (German cockroaches [1]): 9.4 h
KT90 (German cockroaches [1]): 15.5 h

O=C([O-])O.[Na+] [Sodium bicarbonate (NaHCO3), Sodium bicarbonate]
KT50 [3]: 16.5 h
KT90 [3]: 20.9 h
KT50 (German cockroaches [1]): 9.7 h
KT90 (German cockroaches [1]): 16.0 h

Oc1ccccc1 [Phenol]
KT-50 (German cockroaches [4]; [5]): 16.5 h
KT-90 (German cockroaches [4]; [5]): 24.0 h
KT-50 (German cockroaches [4]; [6]): 7.5 h
KT-90 (German cockroaches [4]; [6]): 20.3 h
KT-50 (German cockroaches [4]; [7]): 0.4 h
KT-90 (German cockroaches [4]; [7]): 1.5 h
KT-50 (German cockroaches [4]; [8]): 0.2 h
KT-90 (German cockroaches [4]; [8]): 0.4 h
KT-50 (German cockroaches [4]; [9]): <0.1 h
KT-90 (German cockroaches [4]; [9]): 0.1 h
insecticidal activity (in words) (German cockroaches [4]; in CaCO3, every rate tested): more insecticidal than terpineol

From patent US7109240B2, “Non-hazardous pest control” (Ecosmart Technologies, Inc., priority 1993, dated 2006)
